ChEMBL document CHEMBL1201862, “PubChem BioAssay data set” (2004)
Calls of active or inactive are those of the source.

Tests used:
[1] = inhibitors of firefly luciferase expression or activity, dose response, H4 neuroglioma cells, luminescence (AID 1990); assay type: functional, cell-based
[2] = test system: Streptococcus sp. 'group A'; test: growth inhibition of control SK(-) GAS strain, dose response, counter-screen for streptokinase expression inhibitor project, luminescence, kanamycin, BacTiterGlo, confirmation (AID 1900); assay type: functional, organism-based
[3] = Luminescence Cell-Based Dose Response HTS to Identify Inhibitors of 5'UTR Stem-Loop Driven Prion Protein mRNA Translation in H4 Neuroglioblastoma Cells. [Related pubchem assays: 1827 (Project Summary), 1813 (Primary HTS)]; assay type: functional
[4] = inhibitors of SNCA 5'UTR-driven reporter translation, confirmation, H4 neuroglioma cells, luminescence (AID 1988); assay type: functional, cell-based
Streptokinase A = target: T1, Streptokinase A (Streptococcus pyogenes serotype M1, UniProt P10520); test: S. pyogenes streptokinase expression inhibitors, potency, dose response, plasminogen activation absorbance, OD405 (AID 1914); assay type: functional, Streptococcus pyogenes M1 GAS;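 note: secreted streptokinase activity via plasminogen activation per viability signal from cell pellet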
T1 sequence (P10520 whole entry): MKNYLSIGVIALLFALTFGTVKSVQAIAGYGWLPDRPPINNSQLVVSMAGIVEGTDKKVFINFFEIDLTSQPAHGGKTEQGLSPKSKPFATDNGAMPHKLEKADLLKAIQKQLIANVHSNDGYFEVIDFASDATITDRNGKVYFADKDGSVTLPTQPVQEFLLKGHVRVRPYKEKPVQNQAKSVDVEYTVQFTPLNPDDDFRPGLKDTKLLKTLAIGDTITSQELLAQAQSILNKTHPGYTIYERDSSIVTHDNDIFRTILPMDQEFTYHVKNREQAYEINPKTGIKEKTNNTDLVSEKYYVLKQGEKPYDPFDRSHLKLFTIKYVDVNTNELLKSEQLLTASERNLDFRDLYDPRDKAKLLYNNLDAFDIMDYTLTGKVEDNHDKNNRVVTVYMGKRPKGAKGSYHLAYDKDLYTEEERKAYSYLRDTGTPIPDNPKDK

[5] = inhibitors of intracellular T. cruzi replication, confirmation, NIH3T3 host cells, beta-gal luminescence (AID 2044); assay type: functional, cell-based;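 note: intracellular parasites grown in NIH/3T3 mouse fibroblasts as host cells; luminescent beta-galactosidase reporter signal from transgenic T. cruzi replicating inside host cells; inhibitors lower the luminescence signal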
[6] = growth suppression of PTEN-null colon cells, dose response, cell-based, HCT116 PTEN knockout (AID 1047); assay type: functional;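 note: HCT116 colon tumor cells with PTEN knocked out; cells exposed to compound for 60 hours before readout; potency for loss of cell viability measured by luminescence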
[7] = cytotoxicity toward NIH3T3 fibroblasts, dose response, counter-screen, cell-based, ATP luminescence, mouse fibroblasts (AID 2010); assay type: functional;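 note: cells exposed to compound for about 90 hours before reading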
[8] = growth suppression of beta-catenin-knockout colon cells, dose response, cell-based, HCT116, human colon tumor (AID 1045); assay type: functional;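 note: HCT116 colon tumor cells with beta catenin knocked out; cells exposed to compound for 60 hours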
Streptococcus = test: Group A Streptococcus viability loss, dose response, counter-screen for streptokinase expression inhibitor project, luminescence, BacTiterGlo (AID 1915); assay type: functional, organism-based;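 note: potency for reduction of bacterial viability or growth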
HEK293 [9] = test: inhibitors of LMP1-driven NF-kB reporter, dose response, cell-based, HEK293, luciferase, cherry-pick (AID 588343); assay type: functional; details: Homo sapiens
Insulin-degrading enzyme [10] = target: T2, Insulin-degrading enzyme (Homo sapiens, UniProt P14735); test: activators of recombinant IDE enzyme, dose response, counter-screen for IDE activator project, biochemical, fluorescence polarization (AID 588681)
T2 sequence (P14735 whole entry): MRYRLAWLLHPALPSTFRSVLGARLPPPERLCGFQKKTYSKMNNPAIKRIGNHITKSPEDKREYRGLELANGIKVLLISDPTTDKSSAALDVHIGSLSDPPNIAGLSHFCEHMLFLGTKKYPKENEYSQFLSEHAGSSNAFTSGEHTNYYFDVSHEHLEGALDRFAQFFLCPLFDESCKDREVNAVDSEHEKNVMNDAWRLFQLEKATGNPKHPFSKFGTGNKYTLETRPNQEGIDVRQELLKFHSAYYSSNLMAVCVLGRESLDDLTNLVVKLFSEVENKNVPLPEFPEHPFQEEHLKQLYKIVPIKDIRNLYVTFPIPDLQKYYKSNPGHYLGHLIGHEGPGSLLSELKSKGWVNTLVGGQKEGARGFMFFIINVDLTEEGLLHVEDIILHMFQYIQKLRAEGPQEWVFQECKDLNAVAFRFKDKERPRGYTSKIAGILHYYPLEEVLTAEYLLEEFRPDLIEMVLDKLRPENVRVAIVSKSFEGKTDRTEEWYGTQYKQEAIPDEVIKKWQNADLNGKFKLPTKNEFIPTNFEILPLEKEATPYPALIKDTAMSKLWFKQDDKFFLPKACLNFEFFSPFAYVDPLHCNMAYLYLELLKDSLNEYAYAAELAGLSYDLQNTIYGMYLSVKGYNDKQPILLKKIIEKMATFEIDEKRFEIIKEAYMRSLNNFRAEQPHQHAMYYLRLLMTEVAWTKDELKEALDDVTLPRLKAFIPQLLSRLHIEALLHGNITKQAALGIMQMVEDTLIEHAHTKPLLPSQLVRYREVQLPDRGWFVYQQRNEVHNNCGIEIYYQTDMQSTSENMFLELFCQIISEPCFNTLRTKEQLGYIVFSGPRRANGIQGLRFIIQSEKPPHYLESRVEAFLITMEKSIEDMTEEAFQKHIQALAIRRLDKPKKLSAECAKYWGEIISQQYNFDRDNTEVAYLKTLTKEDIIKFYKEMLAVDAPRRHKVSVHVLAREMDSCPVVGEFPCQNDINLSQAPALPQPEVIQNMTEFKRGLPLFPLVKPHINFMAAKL

Insulin-degrading enzyme [11] = target: T2, Insulin-degrading enzyme; test: activators of endogenous IDE in HEK cells, dose response, cell-based, fluorescence polarization (AID 588439); assay type: functional
INS1 = test: beta cell apoptosis inhibitors, cytokine rescue, dose response, luminescence, retest (AID 449756); assay type: functional, cell-based; details: Rattus norvegicus;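 note: cell death triggered by IL-1 beta plus TNF-alpha plus IFN-gamma mixture; protective hits raise ATP signal compared with cytokine alone wells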
HEK293 [12] = test: HEK cell cytotoxicity by LDH release, dose response, cytotoxicity control for IDE activator project, fluorescence, HEK cells (AID 588440); assay type: functional, cell-based; details: Homo sapiens;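 note: cytotoxicity by LDH release measuring loss of membrane integrity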
HEK293 [13] = test: optical interference in Abeta FP readout, dose response, artefact control for IDE activator project, biochemical, fluorescence polarization (AID 588442); assay type: functional, cell-based; details: Homo sapiens
[14] = target: Beta-2 adrenergic receptor (Homo sapiens, UniProt P07550); test: beta2AR agonists driving receptor internalization, dose response, cell-based, FAP fluorogen, flow cytometry, cherry pick 1 (AID 588763); assay type: functional
Chain of Beta-2 adrenergic receptor (P07550 whole entry): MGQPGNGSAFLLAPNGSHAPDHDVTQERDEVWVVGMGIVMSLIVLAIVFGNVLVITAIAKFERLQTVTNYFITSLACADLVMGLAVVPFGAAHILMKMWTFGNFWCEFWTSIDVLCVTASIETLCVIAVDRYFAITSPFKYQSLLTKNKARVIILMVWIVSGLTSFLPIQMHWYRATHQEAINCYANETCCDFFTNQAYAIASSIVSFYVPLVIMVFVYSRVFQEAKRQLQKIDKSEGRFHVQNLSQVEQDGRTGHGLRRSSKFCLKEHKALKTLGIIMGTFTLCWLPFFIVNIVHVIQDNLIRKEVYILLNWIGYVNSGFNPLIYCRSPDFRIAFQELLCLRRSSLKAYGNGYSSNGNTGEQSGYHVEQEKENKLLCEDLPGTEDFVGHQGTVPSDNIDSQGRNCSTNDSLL

[15] = Shn3 3'UTR reporter inhibitors, dose response, cell-based, Clone20 osteoblasts, firefly luciferase, cherry-picked (AID 624132); assay type: functional;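 note: firefly luciferase luminescence from reporter carrying the Shn3 3'UTR in osteoblasts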
[16] = HepG2 cell cytotoxicity, dose response, cytotoxicity control for Shn3 inhibitor project, CellTiter-Glo, cherry-picked (AID 624134); assay type: functional, cell-based
[17] = control 3'UTR Renilla luciferase suppression, dose response, counter-screen for Shn3 inhibitor project, cell-based, Clone20-Shn3RL, cherry-picked (AID 624133); assay type: functional
HEK293 [18] = test: NOD1 signaling inhibitors, primary screen, cell-based, luminescence, uHTS (AID 1578); assay type: functional; details: Homo sapiens
HEK293 [19] = test: cells; assay type: functional, cell-based; details: Homo sapiens
HEK293 [20] = test: cells; assay type: functional, cell-based; details: Homo sapiens; remark: listed apart in the source
[21] = target: Nucleotide-binding oligomerization domain-containing protein 2 (Homo sapiens, UniProt Q9HC29); test: NOD2 signaling inhibitors, cell-based, luminescence, uHTS, HEK293 (AID 1566); assay type: functional
Chain of Nucleotide-binding oligomerization domain-containing protein 2 (Q9HC29 whole entry, the tested form may be a part): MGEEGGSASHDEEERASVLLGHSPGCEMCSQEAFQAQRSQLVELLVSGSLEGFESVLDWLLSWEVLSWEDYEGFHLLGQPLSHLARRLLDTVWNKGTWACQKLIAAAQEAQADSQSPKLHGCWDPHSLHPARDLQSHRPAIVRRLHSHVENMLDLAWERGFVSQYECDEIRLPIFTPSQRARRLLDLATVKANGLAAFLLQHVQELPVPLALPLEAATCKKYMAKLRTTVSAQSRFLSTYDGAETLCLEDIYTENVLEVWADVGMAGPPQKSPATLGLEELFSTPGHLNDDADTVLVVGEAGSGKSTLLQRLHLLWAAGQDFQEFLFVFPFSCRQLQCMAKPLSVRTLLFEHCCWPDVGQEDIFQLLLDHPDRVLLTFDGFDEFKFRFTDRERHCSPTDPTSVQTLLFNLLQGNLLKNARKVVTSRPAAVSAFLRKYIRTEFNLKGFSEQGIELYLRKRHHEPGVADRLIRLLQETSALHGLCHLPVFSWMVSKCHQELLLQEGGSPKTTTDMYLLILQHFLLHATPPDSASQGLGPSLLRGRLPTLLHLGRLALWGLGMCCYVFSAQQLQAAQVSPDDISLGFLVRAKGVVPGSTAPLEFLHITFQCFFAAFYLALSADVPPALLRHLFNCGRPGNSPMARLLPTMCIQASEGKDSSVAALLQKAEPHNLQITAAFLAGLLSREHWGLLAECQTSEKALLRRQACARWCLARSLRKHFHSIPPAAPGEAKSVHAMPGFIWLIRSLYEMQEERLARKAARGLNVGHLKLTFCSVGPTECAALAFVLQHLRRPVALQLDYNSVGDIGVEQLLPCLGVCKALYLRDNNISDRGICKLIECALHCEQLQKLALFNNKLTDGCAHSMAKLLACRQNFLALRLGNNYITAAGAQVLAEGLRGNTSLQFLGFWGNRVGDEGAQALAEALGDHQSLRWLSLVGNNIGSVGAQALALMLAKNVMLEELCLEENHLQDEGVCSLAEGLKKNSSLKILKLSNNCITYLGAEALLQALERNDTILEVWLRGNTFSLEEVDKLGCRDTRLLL

HEK293 [22] = test: NOD2 signaling inhibitors in MDP-stimulated cells, cell-based, uHTS, luminescence (AID 2001); assay type: functional; details: Homo sapiens
HEK293 [23] = test: cells; assay type: functional, cell-based; details: Homo sapiens; remark: listed apart in the source
Protein Wnt-3a = Protein Wnt-3a (Mus musculus, UniProt P27467); test: Wnt3a-driven reporter signaling inhibition, dose response, selectivity assay for Gli-SUFU antagonist project, Wnt-LIGHT cells, luminescence (AID 651570); assay type: functional; details: read-out: IC50_Mean;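 note: Wnt-LIGHT reporter cells stimulated with conditioned medium from Wnt3a-producing cells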
Chain of Protein Wnt-3a (P27467 whole entry): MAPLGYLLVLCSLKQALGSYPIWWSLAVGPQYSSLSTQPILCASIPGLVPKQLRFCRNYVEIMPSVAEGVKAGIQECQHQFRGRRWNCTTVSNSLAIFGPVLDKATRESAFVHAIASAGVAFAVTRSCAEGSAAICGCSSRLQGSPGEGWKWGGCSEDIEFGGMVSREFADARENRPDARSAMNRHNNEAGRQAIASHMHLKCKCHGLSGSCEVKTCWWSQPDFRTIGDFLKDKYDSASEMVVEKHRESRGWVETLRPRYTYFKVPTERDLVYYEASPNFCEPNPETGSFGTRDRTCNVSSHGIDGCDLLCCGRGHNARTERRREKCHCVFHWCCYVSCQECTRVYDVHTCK

[24] = target: Adenosylmethionine-8-amino-7-oxononanoate aminotransferase (Mycobacterium tuberculosis, UniProt P9WQ81); test: Mycobacterium tuberculosis BioA enzyme inhibitor Measured in Biochemical System Using Plate Reader - 2163-02_Inhibitor_Dose_CherryPick_Activity.; assay type: functional, Mycobacterium tuberculosis UT205
Chain of Adenosylmethionine-8-amino-7-oxononanoate aminotransferase (P9WQ81 whole entry): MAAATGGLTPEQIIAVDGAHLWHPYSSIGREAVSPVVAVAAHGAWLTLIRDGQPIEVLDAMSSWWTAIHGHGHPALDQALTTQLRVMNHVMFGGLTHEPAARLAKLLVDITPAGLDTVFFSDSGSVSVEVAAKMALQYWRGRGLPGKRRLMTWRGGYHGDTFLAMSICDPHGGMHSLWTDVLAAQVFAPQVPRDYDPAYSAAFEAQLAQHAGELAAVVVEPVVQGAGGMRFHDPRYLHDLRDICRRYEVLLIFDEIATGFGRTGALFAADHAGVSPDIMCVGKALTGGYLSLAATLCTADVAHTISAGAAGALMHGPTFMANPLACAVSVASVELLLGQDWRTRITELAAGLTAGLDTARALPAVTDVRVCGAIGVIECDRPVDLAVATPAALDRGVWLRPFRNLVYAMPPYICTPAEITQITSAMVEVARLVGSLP

Beta-lactamase [25] = target: Beta-lactamase (Salmonella choleraesuis (strain SC-B67), UniProt Q5J463); test: Epi-absorbance-based counterscreen for selective VIM-2 inhibitors: dose response biochemical high throughput screening assay to identify inhibitors of TEM-1 serine-beta-lactamase.
Chain of Beta-lactamase (Salmonella choleraesuis (strain SC-B67), UniProt Q5J463) (Q5J463 whole entry): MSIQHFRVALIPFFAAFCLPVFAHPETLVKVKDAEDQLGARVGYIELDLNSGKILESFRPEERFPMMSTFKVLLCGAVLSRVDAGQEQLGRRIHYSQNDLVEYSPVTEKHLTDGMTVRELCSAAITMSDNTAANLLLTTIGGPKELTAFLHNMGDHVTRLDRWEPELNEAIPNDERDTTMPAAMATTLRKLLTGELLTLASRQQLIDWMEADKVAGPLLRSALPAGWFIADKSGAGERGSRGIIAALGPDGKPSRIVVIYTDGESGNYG

Beta-lactamase [26] = target: T3, Beta-lactamase (Pseudomonas aeruginosa, UniProt Q79MP6); test: IMP-1 metallo-beta-lactamase inhibitors, dose response, selectivity assay for VIM-2 inhibitor project, biochemical, epi-absorbance (AID 1920)
T3 sequence (Q79MP6 whole entry): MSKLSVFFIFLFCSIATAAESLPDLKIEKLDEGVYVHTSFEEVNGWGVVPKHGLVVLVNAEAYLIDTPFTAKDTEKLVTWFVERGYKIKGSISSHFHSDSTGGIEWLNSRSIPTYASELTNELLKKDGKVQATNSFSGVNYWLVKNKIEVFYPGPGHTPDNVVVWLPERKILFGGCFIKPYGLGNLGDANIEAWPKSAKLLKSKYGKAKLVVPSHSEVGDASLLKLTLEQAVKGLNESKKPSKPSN

Beta-lactamase [27] = target: T3, Beta-lactamase; test: […] counterscreen for selective VIM-2 inhibitors: dose response biochemical high throughput screening assay to identify inhibitors of IMP-1 metallo-beta-lactamase.

COc1ccc(Cn2c(SCc3cc(C)ccc3C)nc3cc(OC)c(OC)cc3c2=N)cc1
EC50 [1]: 24.1 µM (active) | EC50 [2]: 5.16 µM (active) | EC50 [3]: 30.7 µM (active) | EC50 [4]: 10.8 µM (active) | EC50 (Streptokinase A): 6.67 µM (active) | EC50 [5]: 1.19 µM (active) | EC50 [6]: 2.47 µM (active) | EC50 [7]: 9.83 µM (active) | EC50 [8]: 1.88 µM (active) | EC50 (Streptococcus): 8.37 µM (active) | AC50 (HEK293 [9]): 7.9 µM (active) | EC50 (Insulin-degrading enzyme [10]): > 54.7 µM (inactive) | EC50 (Insulin-degrading enzyme [11]): 6.95 µM (active) | AC50 (INS1): 3.48 µM (active) | IC50 (HEK293 [12]): 10.7 µM (inactive) | EC50 (HEK293 [13]): > 56 µM (inactive) | EC50 [14]: 83.4 µM (inactive) | AC50 [15]: 7.91 µM (active) | AC50 [16]: 11.2 µM (active) | AC50 [17]: 9.31 µM (active)

C=CCn1c(O)c(N=NC(=S)Nc2cccc(C)c2)c2ccccc21
EC50 (HEK293 [18]): 1.09 µM (active) | IC50 (HEK293 [19]): 2.97 µM (active) | IC50 (HEK293 [20]): > 20 µM (inactive) | EC50 [21]: 16.3 µM (active) | IC50 (HEK293 [22]): 1.18 µM (active) | EC50 [5]: 0.558 µM (active) | IC50 (HEK293 [23]): > 20 µM (inactive) | EC50 [7]: 3.44 µM (active) | AC50 (HEK293 [9]): 1.46 µM (active) | IC50 (Protein Wnt-3a): 29.2 µM (inactive)

O=C(Nc1cccnc1)c1ccc(N2CCOCC2)c([N+](=O)[O-])c1
AC50 [24]: 6.8 µM (active)

Cc1ccc(-n2c(-c3nn(C)c(C)c3Cl)n[nH]c2=S)cc1
IC50 (Beta-lactamase [25]): > 59.6 µM (inactive) | IC50 (Beta-lactamase [26]): > 59.6 µM (inactive) | IC50 (Beta-lactamase [27]): > 59.6 µM (inactive)

Cc1nn(CCC(=O)O)c2nc(-c3cccnc3)cc(C(F)(F)F)c12
AC50 [24]: 10.2 µM (active)
